# Measurements as given in patent US20170274014A1, “COMBINATIONS OF LOW, IMMUNE ENHANCING, DOSES OF MTOR INHIBITORS AND CARS” (Novartis AG, priority 2014, published 2017).
# “And” between values parts separate entries of the source, which are not always exact repeats. Identical values can stand only once. Like-named read-outs stand apart in the source and are kept apart here.
# Experiments:
# [1] = test system: A/H3N2 strain A/Victoria/361/11; experiment: Hemagglutination inhibition titers to heterologous A/H3N2 strain not in the vaccine; type: in vivo, human
# [2] = test system: PD-1 positive CD4 and CD8 T cells; parameters: species or system human; conditions: in vivo
# [3] = PK analysis of RAD001 in blood of tumor bearing NSG mice; type: in vivo; conditions: for concentration at 24 h: mouse, whole blood
# Experimental: RAD001 dosing: A concentrated micro-emulsion of 50 mg equal to 1 mg RAD001 was formulated and then resuspended in D5W (dextrose 5% in water) at the time of dosing. Mice were orally dosed daily (via oral gavage) with 200 μl of the desired doses of RAD001.
# PK analysis: Mice were dosed daily with RAD001 starting 7 days post tumor implantation. Dosing groups were as follows: 0.3 mg/kg, 1 mg/kg, 3 mg/kg, and 10 mg/kg. Mice were bled on days 0 and 14 following the first and last dose of RAD001, at the following time points for PK analysis: 15 minutes, 30 minutes, 1 hour, 2 hours, 4 hours, 8 hours, 12 hours, and 24 hours.
# [4] = test system: A/H1N1 strain A/New Jersey/8/76; type: in vivo, human
# [5] = test system: influenza vaccine strains (H1N1 A/California/07/2009, H3N2 A/Victoria/210/2009, B/Brisbane/60/2008); experiment: Influenza vaccine strain titers after RAD001 dosing versus placebo; type: in vivo, human; conditions: 4 weeks after vaccination; RAD001 dosing cohorts; intention to treat population
# Experimental: In FIG. 1A, the increase above baseline in influenza geometric mean titers to each of the 3 influenza vaccine strains (H1N1 A/California/07/2009, H3N2 A/Victoria/210/2009, B/Brisbane/60/2008) relative to the increase in the placebo cohort 4 weeks after vaccination is shown for each of the RAD001 dosing cohorts in the intention to treat population. […] FIG. 1B is a graph of the same data as in FIG. 1A for the subset of subjects with baseline influenza titers <=1:40.
# RAD001 concentrations (1 hour post dose) were measured after subjects had been dosed for 4 weeks. All subjects who had pharmacokinetic measurements were included in the analysis set. The fold increase in geometric mean titers at 4 weeks post vaccination relative to baseline is shown on the y axis.
# [6] = test system: H1N1 A/California/07/2009; experiment: Hemagglutination inhibition titers after seasonal influenza vaccination, A/H1N1 vaccine strain; type: in vivo, human; conditions: for HI GMT A/H1N1, Baseline: 2 weeks prior to influenza vaccination; for HI GMT A/H1N1, Week 4: 4 weeks after influenza vaccination
# Experimental: The trial was observer-blind because the placebo in the RAD001 0.5 mg daily and 20 mg weekly cohorts differed slightly from the RAD001 tablets in those cohorts. […] The treatment duration for all cohorts was 6 weeks during which time subjects underwent safety evaluations in the clinic every 2 weeks. After subjects had been dosed for 4 weeks, RAD001 steady state levels were measured pre-dose and at one hour post dose. After completing the 6 week course of study drug, subjects were given a 2 week drug free break to reverse any possible RAD001-induced immunosuppression, and then were given a 2012 seasonal influenza vaccination (Agrippal®, Novartis Vaccines and Diagnostics, Siena, Italy) containing the strains H1N1 A/California/07/2009, H3N2 A/Victoria/210/2009, B/Brisbane/60/2008. Four weeks after influenza vaccination, subjects had serum collected for influenza titer measurements. Antibody titers to the 3 influenza vaccine strains as well as to 2 heterologous strains (A/H1N1 strain A/New Jersey/8/76 and A/H3N2 strain A/Victoria/361/11) were measured by standard hemagglutination inhibition assay (Kendal, A P et al. (1982) Concepts and procedures for laboratory-based influenza surveillance. Atlanta: Centers for Disease Control and Prevention B17-B35). Levels of IgG and IgM specific for the A/H1N1/California/07/2009 were measured in serum samples taken before and 4 weeks after influenza vaccination as described previously (Spensieri, F. et al. (2013) Proc. Natl. Acad. Sci. USA 110:14330-14335). Results were expressed as fluorescence intensity.
# The primary analysis of geometric mean titer ratios was done using a normal Bayesian regression model with non-informative priors. This model was fitted to each antibody titer on the log scale. The primary outcome in each model was the Day 84 measurement. The Day 63 measurement was included in the outcome vector. The model fitted using SAS 9.2 proc mixed with the prior statement. The covariance structure of the matrix was considered as unstructured (option type=UN). A flat prior was used. For the secondary analysis of seroconversion rates, logistic regression was used.
# The ability of RAD001 to improve immune function in elderly volunteers was evaluated by measuring the serologic response to the 2012 seasonal influenza vaccine. The hemagglutination inhibition (HI) geometric mean titers (GMT) to each of the 3 influenza vaccine strains at baseline and 4 weeks after influenza vaccination are provided in Table 6. The primary analysis variable was the HI GMT ratio (4 weeks post vaccination/baseline).
# Rates of seroconversion 4 weeks after influenza vaccination were also evaluated. Seroconversion was defined as the change from a negative pre-vaccination titer (i.e., HI titer <1:10) to post-vaccination HI titer ≧1:40 or at least 4-fold increase from a non-negative (≧1:10) pre-vaccination HI titer.
# NALM6-luc tumors = experiment: Growth of NALM6-luc tumors in NSG mice; type: in vivo; conditions: daily oral dosing of RAD001 alone
# [7] = test system: heterologous influenza strains (A/H1N1 strain A/New Jersey/8/76 and A/H3N2 strain A/Victoria/361/11); parameters: species or system human; conditions: in vivo
smiles,measurement,setting,value
"CO[C@H]1C[C@@H]2CC[C@@H](C)[C@@](O)(O2)C(=O)C(=O)N2CCCC[C@H]2C(=O)O[C@H]([C@H](C)C[C@@H]2CC[C@@H](OCCO)[C@H](OC)C2)CC(=O)[C@H](C)/C=C(\C)[C@@H](O)[C@@H](OC)C(=O)[C@H](C)C[C@H](C)/C=C/C=C/C=C/1C [RAD001, (1R,9S,12S,15R,16E,18R,19R,21R,23S,24E,26E,28E,30S,32S,35R)-1,18-dihydroxy-12-{(1R)-2-[(1S,3R,4R)-4-(2-hydroxyethoxy)-3-methoxycyclohexyl]-1-methylethyl}-19,30-dimethoxy-15,17,21,23,29,35-hexamethyl-11,36-dioxa-4-aza-tricyclo[30.3.1.04,9]hexatriaconta-16,24,26,28-tetraene-2,3,10,14,20-pentaone]",Percentage of subjects who seroconvert to heterologous A/H3N2 strain A/Victoria/361/11 4 weeks after seasonal influenza vaccination,[1]; 0.5 mg daily,38%
same,Percentage of subjects who seroconvert to heterologous A/H3N2 strain A/Victoria/361/11 4 weeks after seasonal influenza vaccination,"[1]; 5 mg weekly, * p < 0.05 vs placebo",39%*
same,Percentage of subjects who seroconvert to heterologous A/H3N2 strain A/Victoria/361/11 4 weeks after seasonal influenza vaccination,"[1]; 20 mg weekly, * p < 0.05 vs placebo",40%*
same,Increase in the HI GMT ratio for the heterologous strain,[1]; RAD001 vs placebo cohorts,higher in the RAD001 as compared to placebo cohorts
same,H3N2 heterologous strain seroconversion rate,"[1]; pooled RAD001 cohorts, versus 20% for placebo, p=0.007",39%
same,Decrease in PD-1 positive CD4 T cells compared to placebo cohort,[2],30.2% and 32.7%
same,Decrease in PD-1 positive CD8 T cells compared to placebo cohort,[2],37.4% and 41.4%
same,Percentage of CD4 PD-1 positive T cells,[2],decreased from baseline
same,Percentage of CD8 PD-1 positive cells,[2],decreased from baseline
same,Percentage of PD-1 negative CD4 T cells,[2],increased
same,concentration at 24 h,"[3]; NSG, lowest dose tested (0.3 mg/kg) oral daily, day 0 and day 14, read-out: RAD001 concentration in the blood 24 hours after dosing",> 10 nM
same,Stability in the blood of tumor bearing mice,"[3]; daily oral dosing, day 0 and day 14 PK",fairly stable
same,concentration at 24 h,"[3]; 0.3 mg/kg, NSG mice, daily oral dosing, read-out: Concentration of RAD001 24 hours after the final dose",> 10 nM
same,Percentage of subjects who seroconvert to heterologous A/H1N1 strain A/NewJersey/8/76 4 weeks after seasonal influenza vaccination,[4]; 0.5 mg daily,17%
same,Percentage of subjects who seroconvert to heterologous A/H1N1 strain A/NewJersey/8/76 4 weeks after seasonal influenza vaccination,[4]; 5 mg weekly,16%
same,Percentage of subjects who seroconvert to heterologous A/H1N1 strain A/NewJersey/8/76 4 weeks after seasonal influenza vaccination,[4]; 20 mg weekly,8%
same,Increase in the HI GMT ratio for the heterologous strain,[4]; RAD001 vs placebo cohorts,higher in the RAD001 as compared to placebo cohorts
same,increase above baseline in influenza geometric mean titers to the 3 influenza vaccine strains relative to placebo,[5],increase in titers
same,HI GMT ratio A/H1N1 (week 4 post vaccination/baseline),"[6]; 0.5 mg daily, N = 50",2.6
same,"HI GMT A/H1N1, Baseline","[6]; 0.5 mg daily, N = 50",102.8
same,"HI GMT A/H1N1, Week 4","[6]; 0.5 mg daily, N = 50",190.2
same,HI GMT ratio A/H1N1 (week 4 post vaccination/baseline),"[6]; 5 mg weekly, N = 49",2.5
same,"HI GMT A/H1N1, Baseline","[6]; 5 mg weekly, N = 49",84.2
same,"HI GMT A/H1N1, Week 4","[6]; 5 mg weekly, N = 49",198.73
same,HI GMT ratio A/H1N1 (week 4 post vaccination/baseline),"[6]; 20 mg weekly, N = 49",1.8
same,"HI GMT A/H1N1, Baseline","[6]; 20 mg weekly, N = 49",90.1
same,"HI GMT A/H1N1, Week 4","[6]; 20 mg weekly, N = 49",129.7
same,Percent of subjects with seroconversion to influenza H1N1 4 weeks after vaccination,"[6]; Intention to Treat Population, 0.5 mg, N = 48",27%
same,Percent of subjects with seroconversion to influenza H1N1 4 weeks after vaccination,"[6]; Intention to Treat Population, 5 mg, N = 49",27%
same,Percent of subjects with seroconversion to influenza H1N1 4 weeks after vaccination,"[6]; Intention to Treat Population, 20 mg, N = 48",17%
same,Percent of subjects with seroconversion to influenza H1N1 4 weeks after vaccination,"[6]; Subjects with Baseline Titers <=40, 0.5 mg",42%
same,Percent of subjects with seroconversion to influenza H1N1 4 weeks after vaccination,"[6]; Subjects with Baseline Titers <=40, 5 mg",45%
same,Percent of subjects with seroconversion to influenza H1N1 4 weeks after vaccination,"[6]; Subjects with Baseline Titers <=40, 20 mg",36%
same,Impact on the growth of NALM6-luc tumors,NALM6-luc tumors,did not have an impact
same,increase above baseline in influenza geometric mean titers to 2 heterologous influenza strains relative to placebo,[7],increase in titers
